From publication PMC2990764, “Evolution of Allosteric Citrate Binding Sites on 6-phosphofructo-1-kinase” (PLoS ONE, 2010)
Positions count from the first letter of the chain named.

Columns and labels:
Test in all cases: coupled spectrophotometric PFK1 assay ([…] nm) with purified enzyme
Assay type in all cases: biochemical
[1] = target: T1, human muscle type 6-phosphofructo-1-kinase (PFK-M) (Homo sapiens, UniProt P08237, K557R)
T1 construct: gene PFKM; recombinant human PFK-M mutant expressed in E. coli RL257
T1 sequence (P08237 2-780 K557R): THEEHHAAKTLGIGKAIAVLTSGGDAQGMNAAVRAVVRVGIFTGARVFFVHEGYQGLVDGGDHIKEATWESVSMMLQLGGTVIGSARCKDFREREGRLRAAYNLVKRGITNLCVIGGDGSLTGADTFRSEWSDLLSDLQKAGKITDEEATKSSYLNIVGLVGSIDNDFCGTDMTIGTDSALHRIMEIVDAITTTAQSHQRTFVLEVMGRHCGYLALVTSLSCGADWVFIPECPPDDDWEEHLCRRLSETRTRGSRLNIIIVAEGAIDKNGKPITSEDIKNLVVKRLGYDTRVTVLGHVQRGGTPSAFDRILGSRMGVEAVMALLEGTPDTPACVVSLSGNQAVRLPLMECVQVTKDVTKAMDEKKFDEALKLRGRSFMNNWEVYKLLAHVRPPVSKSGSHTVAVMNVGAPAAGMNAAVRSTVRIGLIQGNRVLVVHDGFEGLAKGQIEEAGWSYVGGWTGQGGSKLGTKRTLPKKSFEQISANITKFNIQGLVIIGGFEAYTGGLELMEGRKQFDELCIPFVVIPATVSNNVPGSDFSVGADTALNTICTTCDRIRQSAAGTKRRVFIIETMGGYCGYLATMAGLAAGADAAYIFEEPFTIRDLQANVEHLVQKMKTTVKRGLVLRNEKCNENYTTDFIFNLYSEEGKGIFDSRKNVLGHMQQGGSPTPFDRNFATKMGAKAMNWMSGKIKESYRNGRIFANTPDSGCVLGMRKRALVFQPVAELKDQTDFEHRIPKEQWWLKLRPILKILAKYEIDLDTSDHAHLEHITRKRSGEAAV

[2] = target: T2, human muscle type 6-phosphofructo-1-kinase (PFK-M) (Homo sapiens, UniProt P08237)
T2 construct: gene PFKM; recombinant native human PFK-M expressed in E. coli RL257
T2 sequence (P08237 2-780): T1 sequence (P08237 2-780 K557R) with R556K

[3] = target: T3, human muscle type 6-phosphofructo-1-kinase (PFK-M) (Homo sapiens, UniProt P08237, K617A)
T3 construct: gene PFKM; recombinant human PFK-M mutant expressed in E. coli RL257
T3 sequence (P08237 2-780 K617A): T1 sequence (P08237 2-780 K557R) with R556K, K616A

## O=C(O)CC(O)(CC(=O)O)C(=O)O [citrate]
[1]
  Ki: 300 µM
[2]
  Ki: 50 µM
[3]
  Ki: 500 µM
